Target: T1, estrogen receptor alpha (ESR1) in MCF7 breast cancer cells (Homo sapiens, UniProt P03372)
T1 construct: endogenous in cells; host or cells: MCF7 breast cancer cells
T1 sequence (P03372 1-595): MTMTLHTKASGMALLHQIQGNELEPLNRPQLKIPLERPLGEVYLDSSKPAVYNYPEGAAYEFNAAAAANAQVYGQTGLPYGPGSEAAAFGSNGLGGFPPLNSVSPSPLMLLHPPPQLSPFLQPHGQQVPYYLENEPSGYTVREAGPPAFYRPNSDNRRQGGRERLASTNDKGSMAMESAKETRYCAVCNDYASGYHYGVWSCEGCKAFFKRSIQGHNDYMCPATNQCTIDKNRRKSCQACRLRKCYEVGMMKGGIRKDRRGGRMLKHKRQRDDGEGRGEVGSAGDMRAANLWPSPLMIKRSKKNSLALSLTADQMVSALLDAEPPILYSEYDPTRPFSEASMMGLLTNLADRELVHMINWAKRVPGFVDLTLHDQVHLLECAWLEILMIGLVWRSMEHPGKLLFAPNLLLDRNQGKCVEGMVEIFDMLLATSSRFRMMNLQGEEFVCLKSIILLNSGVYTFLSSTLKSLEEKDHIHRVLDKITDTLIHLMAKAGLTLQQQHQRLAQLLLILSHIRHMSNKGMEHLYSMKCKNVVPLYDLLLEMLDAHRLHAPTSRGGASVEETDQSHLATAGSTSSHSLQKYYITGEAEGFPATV
Test: Breast Cancer Cell ERa High Content Fluorescence Imaging Assay (F10)
Assay type: cell-based
Conditions: 4 hours, plateau of the maximal effect, DMSO and 5 nM Fulvestrant define 0% and 100% changes in ESR1
Protocol: Breast Cancer Cell ERa High Content Fluorescence Imaging Assay (F10)
Cell plates were incubated at 37° C., for 4 hours. Fixation and permeabilization were carried out using a Biotek EL406 plate washer and dispenser as follows. […] Samples were incubated 30 minutes. Well contents was aspirated and 50 ul/well of Phosphate Buffered Saline (PBS) containing 0.5% w/v bovine serum albumen, 0.5% v/v Triton X-100 (Antibody Dilution Buffer) was added to each well. Samples were incubated for 30 minutes. Well contents were aspirated and washed 3 times with 100 ul/well of PBS. Immunofluorescence staining of estrogen receptor alpha (ESR1) was carried out using a Biotek EL406 plate washer and dispenser as follows. […] Samples were incubated for 2 hours at room temperature. Samples were washed 4 times with 100 ul/well of PBS. […] Samples were incubated for 2 hours at room temperature. Samples were washed 3 times with 100 ul/well of PBS using a Biotek EL406. Quantitative fluorescence imaging of ESR1 was carried out using a Cellomics Arrayscan V (Thermo). […] Channel 1 (DNA stain) was used to define the nuclear region (Circ). […] Data analysis was carried out using Genedata Screener Software, with DMSO and 5 nM Fulvestrant treated samples being used to define the 0% and 100% changes in ESR1. The “Robust Fit” method was used to define the inflexion point of curve (EC50) and the plateau of the maximal effect (Sinf).

Structure (SMILES)	ER-alpha MCF7 HCS Sinf (%)
CC1=C(c2ccc(F)c(C#N)c2)[C@@H](c2ccc(OCCN3CC(CF)C3)cc2)Oc2ccc(O)cc21 [Example 34, (R)-2-fluoro-5-(2-(4-(2-(3-(fluoromethyl)azetidin-1-yl)ethoxy)phenyl)-6-hydroxy-4-methyl-2H-chromen-3-yl)benzonitrile]	−88%
CC1=C(c2cccc(O)c2)C(c2ccc(OCCN3CC(CF)C3)cc2)Oc2cc(Cl)c(O)cc21 (stereo not drawn) [Example 26, 7-Chloro-2-(4-(2-(3-(fluoromethyl)azetidin-1-yl)ethoxy)phenyl)-3-(3-hydroxyphenyl)-4-methyl-2H-chromen-6-ol]	−93%
CC1=C(c2ccc(F)cc2)C(c2ccc(OCCN3CC(CF)C3)cc2)Oc2cc(C#N)c(O)cc21 (stereo not drawn) [Example 30, 2-{4-[2-(3-Fluoromethyl-azetidin-1-yl)-ethoxy]-phenyl}-3-(4-fluorophenyl)-6-hydroxy-4-methyl-2H-chromene-7-carbonitrile]	−92%
CC1=C(c2cccc(F)c2Cl)C(c2ccc(OCCN3CC(CF)C3)cc2)Oc2ccc(O)cc21 (stereo not drawn) [Example 5]	−98%
CC1=C(c2cc(F)cc(F)c2)[C@H](c2ccc(OCCN3CC(CF)C3)cc2)Oc2ccc(O)cc21 [Example 20, (R)- and (S)-3-(3,5-Difluorophenyl)-2-(4-(2-(3-(fluoromethyl)azetidin-1-yl)ethoxy)phenyl)-4-methyl-2H-chromen-6-ol]	−103%
CC1=C(c2ccc(Cl)c(F)c2)C(c2ccc(OCCN3CC[C@@H](CF)C3)cc2)Oc2ccc(O)cc21 (stereo partly drawn) [Example 2]	−95%
CC1=C(c2ccc(NS(C)(=O)=O)cc2)C(c2ccc(OCCN3CC(CF)C3)cc2)Oc2ccc(O)cc21 (stereo not drawn) [Example 13, N-(4-(2-(4-(2-(3-(Fluoromethyl)azetidin-1-yl)ethoxy)phenyl)-6-hydroxy-4-methyl-2H-chromen-3-yl)phenyl)methanesulfonamide]	−68%
CC1=C(c2ccc(F)c(C#N)c2)[C@H](c2ccc(OCCN3CC(CF)C3)cc2)Oc2ccc(O)cc21 [Example 35, (S)-2-fluoro-5-(2-(4-(2-(3-(fluoromethyl)azetidin-1-yl)ethoxy)phenyl)-6-hydroxy-4-methyl-2H-chromen-3-yl)benzonitrile]	−97%
CC1=C(c2ccc(F)cc2)C(c2ccc(OCCN3CC(CF)C3)cc2)Oc2cc(C)c(O)cc21 (stereo not drawn) [Example 29, 2-{4-[2-(3-Fluoromethyl-azetidin-1-yl)-ethoxy]-phenyl}-3-(4-fluoro-phenyl)-4,7-dimethyl-2H-chromen-6-ol]	−90%
CC1=C(c2ccc(C(N)=O)cc2)C(c2ccc(OCCN3CC(CF)C3)cc2)Oc2ccc(O)cc21 (stereo not drawn) [Example 15, 4-(2-(4-(2-(3-(Fluoromethyl)azetidin-1-yl)ethoxy)phenyl)-6-hydroxy-4-methyl-2H-chromen-3-yl)benzamide]	−99%
CC1=C(c2ccc(F)c(C#N)c2)C(c2ccc(OCCN3CC(CF)C3)cc2)Oc2ccc(O)cc21 (stereo not drawn) [Example 33, 2-fluoro-5-[2-[4-[2-[3-(fluoromethyl)azetidin-1-yl]ethoxy]phenyl]-6-hydroxy-4-methyl-2H-chromen-3-yl]benzonitrile]	−96%
CC1=C(c2cc(F)ccc2C)C(c2ccc(OCCN3CC(CF)C3)cc2)Oc2ccc(O)cc21 (stereo not drawn) [Example 7, 3-(5-Fluoro-2-methylphenyl)-2-(4-(2-(3-(fluoromethyl)azetidin-1-yl)ethoxy)phenyl)-4-methyl-2H-chromen-6-ol]	−99%
CC(=O)Nc1cccc(C2=C(C)c3cc(O)ccc3OC2c2ccc(OCCN3CC(CF)C3)cc2)c1 (stereo not drawn) [Example 10, N-(3-(2-(4-(2-(3-(Fluoromethyl)azetidin-1-yl)ethoxy)phenyl)-6-hydroxy-4-methyl-2H-chromen-3-yl)phenyl)acetamide]	−94%
COc1cc(C2=C(C)c3cc(O)ccc3OC2c2ccc(OCCN3CC(CF)C3)cc2)ccc1O (stereo not drawn) [Example 46, 2-(4-(2-(3-(fluoromethyl)azetidin-1-yl)ethoxy)phenyl)-3-(4-hydroxy-3-methoxyphenyl)-4-methyl-2H-chromen-6-ol]	−98%
CC1=C(c2cccc(S(C)(=O)=O)c2)C(c2ccc(OCCN3CC(CF)C3)cc2)Oc2ccc(O)cc21 (stereo not drawn) [Example 9, 2-(4-(2-(3-(Fluoromethyl)azetidin-1-yl)ethoxy)phenyl)-4-methyl-3-(3-(methylsulfonyl)phenyl)-2H-chromen-6-ol]	−99%
CC1=C(c2ccc(F)cc2Cl)[C@H](c2ccc(OCCN3CC(CF)C3)cc2)Oc2ccc(O)cc21 [Example 41, (2S)-3-(2-chloro-4-fluoro-phenyl)-2-[4-[2-[3-(fluoromethyl)azetidin-1-yl]ethoxy]phenyl]-4-methyl-2H-chromen-6-ol]	−100%
CC1=C(c2cc(F)ccc2F)[C@@H](c2ccc(OCCN3CC(CF)C3)cc2)Oc2ccc(O)cc21 [Example 42, (2R)-3-(2,5-difluorophenyl)-2-[4-[2-[3-(fluoromethyl)azetidin-1-yl]ethoxy]phenyl]-4-methyl-2H-chromen-6-ol]	−94%
CC1=C(c2ccc(F)cc2C)C(c2ccc(OCCN3CC(CF)C3)cc2)Oc2ccc(O)cc21 (stereo not drawn) [Example 6, 3-(4-Fluoro-2-methylphenyl)-2-(4-(2-(3-(fluoromethyl)azetidin-1-yl)ethoxy)phenyl)-4-methyl-2H-chromen-6-ol]	−96%
CC1=C(c2ccc(F)cc2Cl)[C@@H](c2ccc(OCCN3CC(CF)C3)cc2)Oc2ccc(O)cc21 [Example 40, (2R)-3-(2-chloro-4-fluoro-phenyl)-2-[4-[2-[3-(fluoromethyl)azetidin-1-yl]ethoxy]phenyl]-4-methyl-2H-chromen-6-ol]	−98%
CC1=C(c2cccc(CO)c2)C(c2ccc(OCCN3CC(CF)C3)cc2)Oc2ccc(O)cc21 (stereo not drawn) [Example 17, 2-(4-(2-(3-(Fluoromethyl)azetidin-1-yl)ethoxy)phenyl)-3-(3-(hydroxymethyl)phenyl)-4-methyl-2H-chromen-6-ol]	−101%
CC1=C(c2ccc(Cl)c(F)c2)C(c2ccc(OC[C@H](C)N3CC[C@@H](CF)C3)cc2)Oc2ccc(O)cc21 (stereo partly drawn) [Example 1, 3-(4-Chloro-3-fluorophenyl)-2-(4-((S)-2-((R)-3-(fluoromethyl)pyrrolidin-1-yl)propoxy)phenyl)-4-methyl-2H-chromen-6-ol]	−91%
CC1=C(c2cccc(C(N)=O)c2)C(c2ccc(OCCN3CC(CF)C3)cc2)Oc2ccc(O)cc21 (stereo not drawn) [Example 14, 3-(2-(4-(2-(3-(Fluoromethyl)azetidin-1-yl)ethoxy)phenyl)-6-hydroxy-4-methyl-2H-chromen-3-yl)benzamide]	−97%
CC1=C(c2cc(F)cc(F)c2)[C@@H](c2ccc(OCCN3CC(CF)C3)cc2)Oc2ccc(O)cc21 [Example 19, (R)- and (S)-3-(3,5-Difluorophenyl)-2-(4-(2-(3-(fluoromethyl)azetidin-1-yl)ethoxy)phenyl)-4-methyl-2H-chromen-6-ol]	−50%
CC1=C(c2cc(F)ccc2F)[C@H](c2ccc(OCCN3CC(CF)C3)cc2)Oc2ccc(O)cc21 [Example 43, (2S)-3-(2,5-difluorophenyl)-2-[4-[2-[3-(fluoromethyl)azetidin-1-yl]ethoxy]phenyl]-4-methyl-2H-chromen-6-ol]	−94%
CC1=C(c2cccc(NS(C)(=O)=O)c2)C(c2ccc(OCCN3CC(CF)C3)cc2)Oc2ccc(O)cc21 (stereo not drawn) [Example 12, N-(3-(2-(4-(2-(3-(Fluoromethyl)azetidin-1-yl)ethoxy)phenyl)-6-hydroxy-4-methyl-2H-chromen-3-yl)phenyl)methanesulfonamide]	−93%
CC1=C(c2ccc(C#N)c(Cl)c2)C(c2ccc(OCCN3CC(CF)C3)cc2)Oc2ccc(O)cc21 (stereo not drawn) [Example 18, 2-Chloro-4-(2-(4-(2-(3-(fluoromethyl)azetidin-1-yl)ethoxy)phenyl)-6-hydroxy-4-methyl-2H-chromen-3-yl)benzonitrile]	−99%
CC1=C(c2cccc(Cl)c2)[C@H](c2ccc(OCCN3CC(CF)C3)cc2)Oc2ccc(O)cc21 [Example 37, (S)-3-(3-chlorophenyl)-2-(4-(2-(3-(fluoromethyl)azetidin-1-yl)ethoxy)phenyl)-4-methyl-2H-chromen-6-ol]	−98%
